Experiments:
Type in all cases: in vivo
Avena fatua (AVEFA) [1] = test: Example B post-emergence herbicidal test, AVEFA; conditions: Avena fatua, 312 h, rate 250 g/ha, evaluated after 13 days, scale 0-100, read-out: Post-emergence activity AVEFA (100=total damage to plant; 0=no damage to plant)
Method in brief: (§1)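 Score: 0 = no damage, 100 = total damage, assessed 13 days post-spray. Plants sprayed 8 days after sowing with aqueous dilution of acetone/water (50:50) formulation containing 0.5% Tween 20.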

[2] = tested on: Alopecurus myosuroides (ALOMY); test: Example B post-emergence herbicidal test, ALOMY; conditions: Alopecurus myosuroides, 312 h, rate 250 g/ha, evaluated after 13 days, scale 0-100, read-out: Post-emergence activity ALOMY (100=total damage to plant; 0=no damage to plant)
Method in brief: as §1

[3] = tested on: Echinochloa crus-galli (ECHCG); test: Example B post-emergence herbicidal test, ECHCG; conditions: Echinochloa crus-galli, 312 h, rate 250 g/ha, evaluated after 13 days, scale 0-100, read-out: Post-emergence activity ECHCG (100=total damage to plant; 0=no damage to plant)
Method in brief: as §1

[4] = tested on: Echinochloa crus-galli (ECHCG); test: Example B pre-emergence herbicidal test, ECHCG; conditions: Echinochloa crus-galli, 312 h, rate 250 g/ha, evaluated after 13 days, 100=total damage to plant, 0=no damage to plant
Method in brief: (§2)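 Plants were rated 13 days after treatment, 0 = no damage to 100 = total damage. They were grown in a glasshouse at 24/16 °C, 14 h light, 65% humidity and watered twice daily. Pre-emergence spray was applied one day after sowing, formulated in acetone/water 50:50 with 0.5% Tween 20.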

Lolium perenne (LOLPE) [5] = test: Example B post-emergence herbicidal test, LOLPE; conditions: Lolium perenne, 312 h, rate 250 g/ha, evaluated after 13 days, scale 0-100, read-out: Post-emergence activity LOLPE (100=total damage to plant; 0=no damage to plant)
Method in brief: as §1

Avena fatua (AVEFA) [6] = test: Example B pre-emergence herbicidal test, AVEFA; conditions: Avena fatua, 312 h, rate 250 g/ha, evaluated after 13 days, 100=total damage to plant, 0=no damage to plant
Method in brief: as §2

[7] = tested on: Alopecurus myosuroides (ALOMY); test: Example B pre-emergence herbicidal test, ALOMY; conditions: Alopecurus myosuroides, 312 h, rate 250 g/ha, evaluated after 13 days, 100=total damage to plant, 0=no damage to plant
Method in brief: as §2

Lolium perenne (LOLPE) [8] = test: Example B pre-emergence herbicidal test, LOLPE; conditions: Lolium perenne, 312 h, rate 250 g/ha, evaluated after 13 days, 100=total damage to plant, 0=no damage to plant
Method in brief: as §2

Row | Structure (SMILES) | pest or weed control at 250 g/ha (Avena fatua (AVEFA) [1]) [%] | pest or weed control at 250 g/ha [2] [%] | pest or weed control at 250 g/ha [3] [%] | pest or weed control at 250 g/ha [4] [%] | pest or weed control at 250 g/ha (Lolium perenne (LOLPE) [5]) [%] | pest or weed control at 250 g/ha (Avena fatua (AVEFA) [6]) [%] | pest or weed control at 250 g/ha [7] [%] | pest or weed control at 250 g/ha (Lolium perenne (LOLPE) [8]) [%]
1 | Cc1cc(C)c(C2C(=O)CC(CC3CCC(C)O3)C2=O)c(C)c1 (stereo not drawn) [Compound T26] | 70 | 60 | 60 | 100 | 80 | 60 | 70 | 100
2 | Cc1cc(C)c(C2C(=O)CC(CC3CCN(C(=O)c4ccccc4C)CC3)C2=O)c(C)c1 (stereo not drawn) [Compound T72] | 80 | 50 | 90 | 80 | 80 | 20 | 30 | 60
3 | Cc1cc(-c2ccc(F)c(Cl)c2)cc(C)c1C1C(=O)C/C(=C\C2CCOCC2)C1=O (stereo not drawn) [Compound T65] | 100 | 90 | 100 | 100 | 90 | 80 | 70 | 80
4 | CCSC(=O)OC1=C(c2c(C)cc(C)cc2C)C(=O)C(CC2CCOC2)C1 (stereo not drawn) [Compound P30] | 100 | 100 | 90 | 80 | 100 | 90 | 100 | 100
5 | Cc1cc(C)c(C2C(=O)C/C(=C\C3CCSCC3)C2=O)c(C)c1 (stereo not drawn) [Compound T9] | 30 | 60 | 80 | 20 | 80 | 0 | 20 | 60
6 | Cc1cc(C)c(C2=C(OC(=O)C(C)C)CC(CC3CCN(C(=O)C(C)C)C3)C2=O)c(C)c1 (stereo not drawn) [Compound P58] | 90 | 90 | 70 | 80 | 90 | 70 | 70 | 80
7 | COc1ccc(C(=O)OC2=C(c3c(C)cc(C)cc3C)C(=O)C(CC3CCOC3)C2)cc1 (stereo not drawn) [Compound P18] | 90 | 90 | 90 | 90 | 100 | 80 | 100 | 100
8 | Cc1cc(C)c(C2C(=O)CC(CCC3CCOCC3)C2=O)c(C)c1 (stereo not drawn) [Compound T21] | 90 | 90 | 80 | 90 | 90 | 70 | 100 | 100
9 | COCC(=O)N1CCC(CC2CC(=O)C(c3c(C)cc(C)cc3C)C2=O)CC1 (stereo not drawn) [Compound T81] | 100 | 90 | 80 | 60 | 90 | 80 | 80 | 80
10 | C=CCOC(=O)OC1=C(c2c(C)cc(C)cc2C)C(=O)C(CC2CCOC2)C1 (stereo not drawn) [Compound P25] | 90 | 90 | 100 | 90 | 100 | 80 | 100 | 90
11 | CC(=O)N1CCC(CC2CC(=O)C(c3c(C)cc(C)cc3C)C2=O)C1 (stereo not drawn) [Compound T35] | 60 | 70 | 70 | 40 | 70 | 10 | 30 | 70
12 | CCC(=O)OC1=C(c2c(C)cc(C)cc2C)C(=O)C(CC2CCN(C(=O)CC)CC2)C1 (stereo not drawn) [Compound P65] | 90 | 90 | 90 | 80 | 90 | 60 | 60 | 90
13 | CCCCC(=O)N1CCC(CC2CC(=O)C(c3c(C)cc(C)cc3C)C2=O)CC1 (stereo not drawn) [Compound T85] | 90 | 90 | 80 | 30 | 90 | 20 | 60 | 60
14 | Cc1cc(C)c(C2=C(OC(=O)C(C)(C)C)C/C(=C\C3CCSCC3)C2=O)c(C)c1 [Compound P9] | 10 | 30 | 50 | 20 | 40 | 0 | 30 | 40
15 | Cc1cc(-c2ccccc2F)cc(C)c1C1C(=O)CC(CC2CCOC2)C1=O (stereo not drawn) [Compound T140] | 60 | 90 | 90 | 90 | 90 | 50 | 60 | 70
16 | Cc1cc(C)c(C2=C(OS(C)(=O)=O)C/C(=C\C3CCN(S(C)(=O)=O)C3)C2=O)c(C)c1 (stereo not drawn) [Compound P46] | 90 | 90 | 70 | 100 | 80 | 60 | 70 | 90
17 | COC(=O)N1CCC(/C=C2\CC(=O)C(c3c(C)cc(C)cc3C)C2=O)C1 (stereo not drawn) [Compound T32] | 90 | 90 | 90 | 100 | 90 | 90 | 70 | 100
18 | Cc1cc(C)c(C2C(=O)CC(CC3CCN(C(=O)C(F)(F)C(F)F)CC3)C2=O)c(C)c1 (stereo not drawn) [Compound T161] | 90 | 70 | 90 | 100 | 100 | 60 | 30 | 90

Reference: patent US9096560B2, “5-heterocyclylalkyl-3-hydroxy-2-phenylcyclopent-2-enones as herbicides” (Syngenta Limited, priority 2008, dated 2015)
